The text below walks through data of patent publication US9150543B2, “Substituted indolyl alkyl amino derivatives as inhibitors of histone deacetylase” (Janssen Pharmaceutica N. V., priority 2004, dated 2015).

The target of data set [1] is histone deacetylase (HeLa nuclear extracts). In words: In vitro assay for inhibition of histone deacetylase with fluorescent-labelled substrate (C.1.b). In kind it is biochemical. The note with it: Fluor de Lys substrate. As for the experimental part: The HDAC Fluorescent Activity Assay/Drug Discovery Kit of Biomol (cat.No: AK-500-0001) was used. The HDAC Fluorescent Activity Assay is based on the Fluor de Lys (Fluorogenic Histone deAcetylase Lysyl) substrate and developer combination. The Fluor de Lys substrate, comprises an acetylated lysine side chain. Deacetylation of the substrate sensitizes the substrate so that, in the second step, treatment with the Fluor de Lys developer produces a fluorophore.
After 30 min, 1 volume of the developer was added. […] For each experiment, controls (containing HeLa nuclear extract and buffer), a blank incubation (containing buffer but no HeLa nuclear extract) and samples (containing compound dissolved in DMSO and further diluted in buffer and HeLa nuclear extract) were run in parallel. In first instance, compounds were tested at a concentration of 10^−5M. […] All sample were tested 4 times. In each test the blank value was subtracted from both the control and the sample values. The control sample represented 100% of substrate deactylation. For each sample the fluorescence was expressed as a percentage of the mean value of the controls. […] Herein the effects of test compounds are expressed as pIC50 (the negative log value of the IC50-value) (see Table F-3).

The subject of data set [2] is A2780 ovarian carcinoma cells. In words: Antiproliferative activity on A2780 cells, MTT (C.2). In kind it is cell-based. The note with it: Homo sapiens, 96 h, four days of incubation, read-out: Cellular activity pIC50 C.2 (converted). The method, then: All compounds tested were dissolved in DMSO and further dilutions were made in culture medium. Final DMSO concentrations never exceeded 0.1% (v/v) in cell proliferation assays. Controls contained A2780 cells and DMSO without compound and blanks contained DMSO but no cells. MTT was dissolved at 5 mg/ml in PBS. A glycine buffer comprised of 0.1 M glycine and 0.1 M NaCl buffered to pH 10.5 with NaOH (1N) was prepared (all reagents were from Merck).
The human A2780 ovarian carcinoma cells (a kind gift from Dr. T. C. Hamilton [Fox Chase Cancer Centre, Pennsylvania, USA]) were cultured in RPMI 1640 medium supplemented with 2 mM L-glutamine, 50 μg/ml gentamicin and 10% fetal calf serum. Cells were routinely kept as monolayer cultures at 37° C. in a humidified 5% CO2 atmosphere. Cells were passaged once a week using a trypsin/EDTA solution at a split ratio of 1:40. All media and supplements were obtained from Life Technologies. Cells were free of mycoplasma contamination as determined using the Gen-Probe Mycoplasma Tissue Culture kit (supplier: BioMerieux).
Cells were seeded in NUNC™ 96-well culture plates (Supplier: Life Technologies) and allowed to adhere to the plastic overnight. Densities used for plating were 1500 cells per well in a total volume of 200 μl medium. After cell adhesion to the plates, medium was changed and drugs and/or solvents were added to a final volume of 200 μl. Following four days of incubation, medium was replaced by 200 μl fresh medium and cell density and viability was assessed using an MTT-based assay. To each well, 25 μl MTT solution was added and the cells were further incubated for 2 hours at 37° C. The medium was then carefully aspirated and the blue MTT-formazan product was solubilized by addition of 25 μl glycine buffer followed by 100 μl of DMSO. […] Within an experiment, the results for each experimental condition are the mean of 3 replicate wells. For initial screening purposes, compounds were tested at a single fixed concentration of 10^−6 M. For active compounds, the experiments were repeated to establish full concentration-response curves. For each experiment, controls (containing no drug) and a blank incubation (containing no cells or drugs) were run in parallel. The blank value was subtracted from all control and sample values. For each sample, the mean value for cell growth (in absorbance units) was expressed as a percentage of the mean value for cell growth of the control. […] Herein the effects of test compounds are expressed as pIC50 (the negative log value of the IC50-value)(see Table F-3).

The nature of data set [3]: Solubility/stability at different pH's, chemiluminescent nitrogen detector (C.3.b). In kind it is physicochemical. The note with it: aqueous buffer; pH = 2.3. An excerpt: In a second method the solubility of a compound at different pH's can be measured with the use of a Chemiluminescent Nitrogen Detector (see example C.3.b).
The solubility of a compound, at different pH's, can also be measured with the use of a chemiluminescent nitrogen detector. (see Table F-3).

SMILES strings stand for the structures. Values after ≈ are worked out from the molar mass of the structure shown. Where only a bound is given, the exact number is not on record here.

In general, solubility refers to the dissolved amount per volume that the medium holds. Low values mean little dissolved substance, high ones much dissolved substance. As for `CCN(CCc1cn(C)c2ccc(Cl)cc12)CC1CCN(c2ncc(C(=O)NO)cn2)CC1` [Compound 65], the “Enzymatic activity pIC50 C.1.b” value in data set [1] is listed as greater than 9.0. In data set [2], the IC50 was 31.6 nM. Also, the solubility in data set [3] worked out at 1600 µg/mL (≈ 3.4 mM).
Consider `CCN(Cc1cn(C)c2ccccc12)CC1CCN(c2ncc(C(=O)NO)cn2)CC1` [Compound 68], for which the “Enzymatic activity pIC50 C.1.b” value in data set [1] is reported as greater than 9.0. The IC50 in data set [2] is 63.1 nM. This molecule yielded a solubility in data set [3] of 2500 µg/mL (≈ 5.92 mM).
On the same counts, the results for `COc1ccc2c(c1)c(CNCC1CCN(c3ncc(C(=O)NO)cn3)CC1)cn2C` [Compound 33] are 10.0, 31.6 nM and 1600 µg/mL (≈ 3.77 mM).
One may read the melting point as the temperature of the solid-liquid transition. In turn, `COc1ccc2c(CCNCC3CCN(c4ncc(C(=O)NO)cn4)CC3)cn(C)c2c1` [Compound 24] gave a melting point of 160 °C. In data set [1], the “Enzymatic activity pIC50 C.1.b” value amounted to 7.6. Besides, in data set [2], the IC50 was 316 nM. The concentration in solution in data set [3] (solubility) was 1600 µg/mL (≈ 3.65 mM).
For the molecule `Cn1ccc2cccc(CNCC3CCN(c4ncc(C(=O)NO)cn4)CC3)c21` [Compound 57], the “Enzymatic activity pIC50 C.1.b” value in data set [1] came to 10.2. The IC50 in data set [2] was 25.1 nM. The same molecule came in with a solubility in data set [3] of 2800 µg/mL (≈ 7.1 mM).
`CCn1c(C)c(CCNC2CCN(c3ncc(C(=O)NO)cn3)CC2)c2ccccc21` [Compound 23] yielded a melting point of 182 °C. The “Enzymatic activity pIC50 C.1.b” value in data set [1] is 8.4. In addition, in data set [2], the IC50 is 31.6 nM.
As to `Cc1ccc2c(c1)c(CNCC1CCN(c3ncc(C(=O)NO)cn3)CC1)cn2C` [Compound 36], the “Enzymatic activity pIC50 C.1.b” value in data set [1] was 8.7. In data set [2], the IC50 is 2.51 nM. Further, the concentration in solution in data set [3] (solubility) was 2500 µg/mL (≈ 6.12 mM).
For `Cn1cc(CNCC2CCN(c3ncc(C(=O)NO)cn3)CC2)c2c(F)cccc21` [Compound 39], in that order: 9.0, 31.6 nM and 2000 µg/mL (≈ 4.85 mM).
On to `Cn1ccc2cc(CNCC3CCN(c4ncc(C(=O)NO)cn4)CC3)ccc21` [Compound 44], for which the “Enzymatic activity pIC50 C.1.b” value in data set [1] is on record as 8.2. Moreover, in data set [2], the IC50 is 39.8 nM. This molecule came in with a solubility in data set [3] of 1800 µg/mL (≈ 4.56 mM).
For `COCCn1cc(CNCC2CCN(c3ncc(C(=O)NO)cn3)CC2)c2ccccc21` [Compound 47], in that order: 8.8, 10 nM and 4000 µg/mL (≈ 9.12 mM).
Take `O=C(NO)c1cnc(N2CCC(CNCc3c[nH]c4ccc(Cl)cc34)CC2)nc1` [Compound 2]: the melting point was determined as 205 °C. Further, the “Enzymatic activity pIC50 C.1.b” value in data set [1] is recorded as 8.4. Further, the IC50 in data set [2] was 31.6 nM.
On the same counts, the results for `CCCn1cc(CNCC2CCN(c3ncc(C(=O)NO)cn3)CC2)c2cc(Cl)ccc21` [Compound 27] are 171 °C, greater than 9.0 and 10 nM.
With `Cn1cc(CNCC2CCN(c3ncc(C(=O)NO)cn3)CC2)c2cccc(F)c21` [Compound 30], the “Enzymatic activity pIC50 C.1.b” value in data set [1] came to 9.0. Moreover, the IC50 in data set [2] was 31.6 nM. Further, the solubility in data set [3] amounted to 2100 µg/mL (≈ 5.09 mM).
On the same counts, the results for `Cn1cc(CNCC2CCN(c3ncc(C(=O)NO)cn3)CC2)c2cc(Cl)ccc21` [Compound 32] are 8.0, 3.98 nM and 1500 µg/mL (≈ 3.5 mM).
On the same counts, the results for `Cn1ccc2c(CNCC3CCN(c4ncc(C(=O)NO)cn4)CC3)cccc21` [Compound 49] are 8.7, 31.6 nM and 3300 µg/mL (≈ 8.37 mM).
On the same counts, the results for `CCCCn1cc(CNCC2CCN(c3ncc(C(=O)NO)cn3)CC2)c2ccccc21` [Compound 43] are 8.5, 15.8 nM and 2100 µg/mL (≈ 4.81 mM).
As to `CN(Cc1cn(C)c2ccccc12)CC1CCN(c2ncc(C(=O)NO)cn2)CC1` [Compound 67], in data set [1], the “Enzymatic activity pIC50 C.1.b” value worked out at 8.3. Moreover, the IC50 in data set [2] was 31.6 nM. The same molecule registered a solubility in data set [3] of 1900 µg/mL (≈ 4.65 mM).
For `Cn1c(CNCC2CCN(c3ncc(C(=O)NO)cn3)CC2)cc2ccccc21` [Compound 11], in data set [1], the “Enzymatic activity pIC50 C.1.b” value was 8.2. Besides, in data set [2], the IC50 is 31.6 nM. Moreover, the solubility in data set [3] was 2800 µg/mL (≈ 7.1 mM).
With `CCCn1cc(CCN(CC)CC2CCN(c3ncc(C(=O)NO)cn3)CC2)c2ccc(OC)cc21` [Compound 25], the melting point amounted to 80 °C. Further, the “Enzymatic activity pIC50 C.1.b” value in data set [1] was 7.6. In addition, the IC50 in data set [2] was 100 nM.
`O=C(NO)c1cnc(N2CCC(CNCc3cc4ccccc4o3)CC2)nc1` [Compound 10]: in data set [1], the “Enzymatic activity pIC50 C.1.b” value came to 8.1. In data set [2], the IC50 was 31.6 nM. In data set [3], this molecule registered a solubility of 3700 µg/mL (≈ 9.7 mM).
On the same counts, the results for `COc1cc2c(CNCC3CCN(c4ncc(C(=O)NO)cn4)CC3)cn(C)c2cc1OC` [Compound 60] are 8.7, 126 nM and 3100 µg/mL (≈ 6.82 mM).
On the same counts, the results for `CCCn1cc(CNCC2CCN(c3ncc(C(=O)NO)cn3)CC2)c2cc3c(cc21)OCO3` [Compound 45] are 9.0, 200 nM and 1700 µg/mL (≈ 3.64 mM).
For `O=C(NO)c1cnc(N2CCC(CNCc3c[nH]c4ccccc34)CC2)nc1` [Compound 8], in that order: 8.3, 79.4 nM and 2400 µg/mL (≈ 6.31 mM).
On to `Cc1c(CCNCC2CCN(c3ncc(C(=O)NO)cn3)CC2)c2ccccc2n1C` [Compound 28], for which the melting point was determined as 80 °C. Moreover, in data set [1], the “Enzymatic activity pIC50 C.1.b” value is 8.1. The IC50 in data set [2] was 79.4 nM.
In the case of `CCN(CCc1cn(C)c2ccccc12)CC1CCN(c2ncc(C(=O)NO)cn2)CC1` [Compound 66], the “Enzymatic activity pIC50 C.1.b” value in data set [1] is greater than 9.0. Besides, the IC50 in data set [2] was 39.8 nM. Besides, the solubility in data set [3] is 1700 µg/mL (≈ 3.89 mM).
For the molecule `Cn1cc(CCNCC2CCN(c3ncc(C(=O)NO)cn3)CC2)c2ccccc21` [Compound 19], the melting point was found to be 174 °C. Further, the “Enzymatic activity pIC50 C.1.b” value in data set [1] is reported as 8.0. Besides, the IC50 in data set [2] is 79.4 nM.
As for `Cn1ccc2ccc(CNCC3CCN(c4ncc(C(=O)NO)cn4)CC3)cc21` [Compound 50], the “Enzymatic activity pIC50 C.1.b” value in data set [1] is 8.6. For the same molecule, the IC50 in data set [2] is 25.1 nM. Also, the solubility in data set [3] is 2400 µg/mL (≈ 6.08 mM).
Regarding `Cn1cc(CCN(CC2CCN(c3ncc(C(=O)NO)cn3)CC2)S(C)(=O)=O)c2cc(Cl)ccc21` [Compound 22], the melting point was determined as 183 °C. Further, the “Enzymatic activity pIC50 C.1.b” value in data set [1] was determined as 9.1. Also, the IC50 in data set [2] was 63.1 nM.
Molecule `Cn1cc(CCNCC2CCN(c3ncc(C(=O)NO)cn3)CC2)c2cc(Cl)ccc21` [Compound 26] gave a melting point of 188 °C. Besides, the “Enzymatic activity pIC50 C.1.b” value in data set [1] is listed as greater than 9.0. Also, the IC50 in data set [2] is 31.6 nM.
With `Cc1ccc2c(CNCC3CCN(c4ncc(C(=O)NO)cn4)CC3)cn(C)c2c1` [Compound 79], the “Enzymatic activity pIC50 C.1.b” value in data set [1] was found to be 8.4. In data set [2], the IC50 is 7.94 nM. This molecule also showed a solubility in data set [3] of 2700 µg/mL (≈ 6.61 mM).
On the same counts, the results for `Cc1cccc2c(CNCC3CCN(c4ncc(C(=O)NO)cn4)CC3)c[nH]c12` [Compound 14] are 8.4, 39.8 nM and 1700 µg/mL (≈ 4.31 mM).
On the same counts, the results for `Cn1cc(CNCC2CCN(c3ncc(C(=O)NO)cn3)CC2)c2cc(C#N)ccc21` [Compound 55] are 10.1, 15.8 nM and 2000 µg/mL (≈ 4.77 mM).
